Our source for the AC50, IC50 and EC50 values is ChEMBL document CHEMBL1201862, “PubChem BioAssay data set” (2004).

For data set [1], the target named is T1, Cytochrome P450 2D6 (Homo sapiens, UniProt P10635).
Data set [2] concerns the target Cytochrome P450 2C19 (Homo sapiens, UniProt P33261). Briefly: Cytochrome panel assay with activity outcomes. Panel member name: p450-cyp2c19 Compounds with AC50 equal or less than 10 uM are considered active. Type of data set: functional.
For data set [3], the target named is Dual specificity protein kinase CLK1 (Homo sapiens, UniProt P49759). The experiment in a line: CLK1 kinase inhibitors, off-target check, dose response, selectivity assay for Dyrk1A inhibitor project, biochemical, cherry-picked samples (AID 588811).
In data set [4] the target is Dual specificity tyrosine-phosphorylation-regulated kinase 1A (Rattus norvegicus, UniProt Q63470). It counts as biochemical, Homo sapiens.
Data set [5] deals with T2, Ubiquitin-conjugating enzyme E2 N (Homo sapiens, UniProt P61088).
T2 sequence (P61088 whole entry): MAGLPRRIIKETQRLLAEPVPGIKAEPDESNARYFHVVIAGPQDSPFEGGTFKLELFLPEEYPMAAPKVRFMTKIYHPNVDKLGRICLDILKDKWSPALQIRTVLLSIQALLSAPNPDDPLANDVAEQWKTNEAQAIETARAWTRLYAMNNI
It counts as functional.

Data set [6] addresses T2, Ubiquitin-conjugating enzyme E2 N. Type of data set: functional. This is another data set of the same source.
The target in data set [7] is T3, Bcl-2-related protein A1 (Mus musculus, UniProt Q07440).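 Further: confirmatory dose–response counterscreen on Bfl-1, used to check hits from a UBC13 polyubiquitin inhibitor campaign.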
T3 sequence (Q07440 whole entry): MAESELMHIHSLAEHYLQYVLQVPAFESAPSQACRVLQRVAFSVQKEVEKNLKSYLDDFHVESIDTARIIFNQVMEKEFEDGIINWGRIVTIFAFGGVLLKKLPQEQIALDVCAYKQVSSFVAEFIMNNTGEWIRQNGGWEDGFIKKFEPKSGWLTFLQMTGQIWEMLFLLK
Type of data set: functional.

Data set [8] deals with BJ. The experiment in a line: cytotoxicity toward BJ-TERT-LT-ST fibroblasts, dose response, cell-based, RAS-independent, luminescence (AID 1935).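 Further: BJ fibroblasts immortalized with TERT plus LT and ST oncogenes.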 Type of data set: functional. The conditions noted are these: Homo sapiens.
The subject of data set [9] is BJ. The experiment in a line: cells. To be noted: Homo sapiens. Type of data set: functional, cell-based.
Data set [10] has as its target SUMO-activating enzyme (Homo sapiens, UniProt Q9UBT2). The experiment in a line: SUMOylation inhibitor hit validation, confirmation, SUMOylation inhibitor project, biochemical, AlphaScreen (AID 2018). Type of data set: functional.
The nature of data set [11]: cytotoxicity toward DRD oncogenic fibroblasts, dose response, cell-based, non-viral oncogenic, luminescence (AID 1934). Type of data set: functional. The conditions noted are these: Homo sapiens.
Data set [12] concerns BJ. Briefly: cytotoxicity toward BJ-TERT fibroblasts, dose response, cell-based, RAS-independent, luminescence (AID 1933). Type of data set: functional. To be noted: Homo sapiens.
In data set [13] the test system is HEK293. Briefly: cells. To be noted: Homo sapiens.
Data set [14] deals with HEK293. Briefly: cells. To be noted: Homo sapiens. This is another data set of the same source.
For data set [15], the system named is HEK293. Briefly: inhibitors of LMP1-driven NF-kB reporter, dose response, cell-based, HEK293, luciferase, cherry-pick (AID 588343). It counts as functional. To be noted: Homo sapiens.
Data set [16] concerns the target Nonstructural protein 1 (Influenza A virus, UniProt Q194T2). It counts as functional, Influenza A virus (A/California/07/2009(H1N1)).
Data set [17] deals with Heat shock protein HSP 90-alpha (Homo sapiens, UniProt P07900). It counts as functional, organism-based.
Data set [18] concerns the target T4, Coagulation factor XII (Homo sapiens, UniProt P00748).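 Further: activated factor XIIa alpha cleaving a fluorogenic AMC peptide substrate; inhibitor potency from loss of enzyme activity.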
T4 sequence (P00748 whole entry): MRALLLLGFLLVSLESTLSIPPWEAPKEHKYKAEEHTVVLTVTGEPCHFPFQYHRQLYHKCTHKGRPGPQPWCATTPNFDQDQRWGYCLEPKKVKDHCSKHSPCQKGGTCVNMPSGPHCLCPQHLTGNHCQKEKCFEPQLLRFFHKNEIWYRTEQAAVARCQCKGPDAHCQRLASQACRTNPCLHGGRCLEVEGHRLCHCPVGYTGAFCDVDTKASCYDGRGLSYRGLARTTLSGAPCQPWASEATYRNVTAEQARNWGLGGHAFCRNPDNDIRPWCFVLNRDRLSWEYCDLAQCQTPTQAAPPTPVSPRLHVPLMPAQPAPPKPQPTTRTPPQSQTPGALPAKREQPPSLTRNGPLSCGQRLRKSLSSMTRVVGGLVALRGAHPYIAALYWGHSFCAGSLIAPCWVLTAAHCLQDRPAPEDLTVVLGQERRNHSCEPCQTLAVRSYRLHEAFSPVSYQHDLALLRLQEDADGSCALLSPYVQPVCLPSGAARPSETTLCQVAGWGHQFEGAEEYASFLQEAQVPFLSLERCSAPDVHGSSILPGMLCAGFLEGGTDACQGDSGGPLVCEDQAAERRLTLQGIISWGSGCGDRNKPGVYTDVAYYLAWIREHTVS
Type of data set: functional.

A short description of data set [19]: cells. Type of data set: functional.
The target of data set [20] is T5, Cytochrome P450 1A2 (Homo sapiens, UniProt P05177).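 Further: PubChem cytochrome P450 panel assay, CYP1A2 panel member.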
T5 sequence (P05177 whole entry): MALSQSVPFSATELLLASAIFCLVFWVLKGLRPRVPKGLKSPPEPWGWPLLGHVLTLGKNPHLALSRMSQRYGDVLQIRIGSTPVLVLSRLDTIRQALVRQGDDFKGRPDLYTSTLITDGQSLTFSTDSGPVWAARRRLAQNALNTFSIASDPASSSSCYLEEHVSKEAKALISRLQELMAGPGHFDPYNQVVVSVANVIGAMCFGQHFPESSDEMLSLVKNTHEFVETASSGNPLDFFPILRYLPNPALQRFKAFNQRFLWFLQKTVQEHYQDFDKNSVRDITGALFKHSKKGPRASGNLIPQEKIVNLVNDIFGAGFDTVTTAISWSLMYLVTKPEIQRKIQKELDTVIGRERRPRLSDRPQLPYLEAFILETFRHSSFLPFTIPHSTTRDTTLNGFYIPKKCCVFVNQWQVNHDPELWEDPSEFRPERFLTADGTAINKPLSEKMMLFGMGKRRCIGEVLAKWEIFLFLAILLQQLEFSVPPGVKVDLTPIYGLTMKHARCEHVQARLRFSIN

Data set [21] addresses Cytochrome P450 2C9 (Homo sapiens, UniProt P11712).
Data set [22] addresses T6, Cysteine protease ATG4B (Homo sapiens, UniProt Q9Y4P1).
T6 sequence (Q9Y4P1 whole entry): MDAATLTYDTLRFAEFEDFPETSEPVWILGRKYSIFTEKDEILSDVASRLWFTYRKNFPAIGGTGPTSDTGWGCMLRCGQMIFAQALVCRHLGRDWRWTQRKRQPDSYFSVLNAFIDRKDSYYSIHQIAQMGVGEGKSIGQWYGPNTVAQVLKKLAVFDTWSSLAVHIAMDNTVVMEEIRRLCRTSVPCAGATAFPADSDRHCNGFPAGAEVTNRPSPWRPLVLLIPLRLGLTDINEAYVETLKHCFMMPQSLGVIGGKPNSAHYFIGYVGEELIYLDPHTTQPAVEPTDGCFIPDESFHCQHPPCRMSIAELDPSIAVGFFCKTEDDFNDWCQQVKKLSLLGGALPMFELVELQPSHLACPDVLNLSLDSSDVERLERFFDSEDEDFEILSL
It counts as functional.

Data set [23] has as its target Cytochrome P450 3A4 (Homo sapiens, UniProt P08684).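 Further: CYP3A4 tested as one member of a cytochrome P450 panel screen.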
The target in data set [24] is Phospholipase A2 (Homo sapiens, UniProt P04054). It counts as functional.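 Further: confirmatory dose-response counterscreen on phospholipase A2, testing hits that came from an ultra-high-throughput screen for ATG4B inhibitors.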
Data set [25] has as its target T1, Cytochrome P450 2D6. This is another data set of the same source.

Activity calls are given as the source filed them.

T1 sequence (P10635 whole entry): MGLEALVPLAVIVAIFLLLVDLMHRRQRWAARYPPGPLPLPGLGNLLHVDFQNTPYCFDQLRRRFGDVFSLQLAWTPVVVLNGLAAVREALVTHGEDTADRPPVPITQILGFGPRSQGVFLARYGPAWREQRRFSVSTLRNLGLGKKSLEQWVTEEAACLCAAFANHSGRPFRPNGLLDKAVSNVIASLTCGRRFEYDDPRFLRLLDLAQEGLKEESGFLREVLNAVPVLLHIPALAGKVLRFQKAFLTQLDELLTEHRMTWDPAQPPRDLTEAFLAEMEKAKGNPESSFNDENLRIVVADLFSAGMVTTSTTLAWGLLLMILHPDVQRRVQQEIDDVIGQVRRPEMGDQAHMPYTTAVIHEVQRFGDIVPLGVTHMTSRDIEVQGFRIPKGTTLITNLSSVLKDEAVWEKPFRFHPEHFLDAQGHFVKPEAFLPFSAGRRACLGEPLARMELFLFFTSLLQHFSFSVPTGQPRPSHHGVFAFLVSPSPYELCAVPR
Chain of Dual specificity protein kinase CLK1 (P49759 whole entry): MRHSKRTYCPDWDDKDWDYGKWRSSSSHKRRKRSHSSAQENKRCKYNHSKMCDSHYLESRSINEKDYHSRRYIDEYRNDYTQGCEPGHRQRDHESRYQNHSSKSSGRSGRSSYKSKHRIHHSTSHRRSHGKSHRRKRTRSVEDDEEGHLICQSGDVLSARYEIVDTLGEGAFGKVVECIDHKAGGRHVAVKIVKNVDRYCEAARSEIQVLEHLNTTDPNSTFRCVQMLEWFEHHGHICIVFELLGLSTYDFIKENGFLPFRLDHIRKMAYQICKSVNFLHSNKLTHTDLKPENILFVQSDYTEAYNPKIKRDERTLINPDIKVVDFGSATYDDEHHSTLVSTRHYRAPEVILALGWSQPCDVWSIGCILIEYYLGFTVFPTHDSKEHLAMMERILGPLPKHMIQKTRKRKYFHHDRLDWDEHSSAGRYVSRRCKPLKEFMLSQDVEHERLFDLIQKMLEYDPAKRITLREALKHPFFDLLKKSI
Chain of Phospholipase A2 (P04054 whole entry): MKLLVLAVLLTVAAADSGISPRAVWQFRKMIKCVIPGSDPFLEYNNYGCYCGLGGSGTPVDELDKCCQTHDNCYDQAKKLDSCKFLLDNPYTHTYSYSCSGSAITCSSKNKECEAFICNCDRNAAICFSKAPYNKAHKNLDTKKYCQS
Chain of Cytochrome P450 2C19 (P33261 whole entry): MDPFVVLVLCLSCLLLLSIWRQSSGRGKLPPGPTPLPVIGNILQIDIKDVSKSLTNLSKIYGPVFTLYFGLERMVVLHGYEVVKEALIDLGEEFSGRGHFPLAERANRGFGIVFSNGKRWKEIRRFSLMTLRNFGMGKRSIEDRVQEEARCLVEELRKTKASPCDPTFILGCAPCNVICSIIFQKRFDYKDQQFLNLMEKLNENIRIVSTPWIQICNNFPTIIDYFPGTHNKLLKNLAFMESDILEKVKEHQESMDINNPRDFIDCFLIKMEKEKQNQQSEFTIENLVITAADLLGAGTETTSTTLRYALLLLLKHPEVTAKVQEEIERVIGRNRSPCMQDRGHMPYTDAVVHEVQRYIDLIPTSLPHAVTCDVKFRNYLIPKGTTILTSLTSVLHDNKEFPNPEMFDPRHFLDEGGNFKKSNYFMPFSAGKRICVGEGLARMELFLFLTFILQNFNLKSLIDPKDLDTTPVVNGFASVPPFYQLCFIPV
Chain of Nonstructural protein 1 (Q194T2 whole entry): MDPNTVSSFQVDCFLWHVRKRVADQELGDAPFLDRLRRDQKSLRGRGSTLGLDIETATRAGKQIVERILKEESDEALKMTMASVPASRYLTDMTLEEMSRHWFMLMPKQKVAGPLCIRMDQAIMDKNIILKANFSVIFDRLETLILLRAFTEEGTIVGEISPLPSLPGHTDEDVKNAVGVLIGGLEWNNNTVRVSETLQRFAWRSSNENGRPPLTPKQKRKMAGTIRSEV
Chain of Cytochrome P450 2C9 (P11712 whole entry): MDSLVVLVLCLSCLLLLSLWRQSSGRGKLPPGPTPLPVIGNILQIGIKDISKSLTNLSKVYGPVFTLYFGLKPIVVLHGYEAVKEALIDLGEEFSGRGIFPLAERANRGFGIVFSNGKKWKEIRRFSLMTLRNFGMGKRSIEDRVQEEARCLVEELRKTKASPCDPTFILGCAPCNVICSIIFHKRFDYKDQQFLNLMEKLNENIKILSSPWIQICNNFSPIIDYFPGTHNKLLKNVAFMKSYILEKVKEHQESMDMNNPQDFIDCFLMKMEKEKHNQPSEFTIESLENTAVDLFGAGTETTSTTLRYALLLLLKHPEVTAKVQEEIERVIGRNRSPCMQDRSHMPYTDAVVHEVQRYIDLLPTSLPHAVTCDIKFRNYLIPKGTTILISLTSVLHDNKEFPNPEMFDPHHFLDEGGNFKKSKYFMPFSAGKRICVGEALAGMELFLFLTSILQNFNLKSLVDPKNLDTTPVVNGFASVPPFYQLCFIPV
Chain of Cytochrome P450 3A4 (P08684 whole entry): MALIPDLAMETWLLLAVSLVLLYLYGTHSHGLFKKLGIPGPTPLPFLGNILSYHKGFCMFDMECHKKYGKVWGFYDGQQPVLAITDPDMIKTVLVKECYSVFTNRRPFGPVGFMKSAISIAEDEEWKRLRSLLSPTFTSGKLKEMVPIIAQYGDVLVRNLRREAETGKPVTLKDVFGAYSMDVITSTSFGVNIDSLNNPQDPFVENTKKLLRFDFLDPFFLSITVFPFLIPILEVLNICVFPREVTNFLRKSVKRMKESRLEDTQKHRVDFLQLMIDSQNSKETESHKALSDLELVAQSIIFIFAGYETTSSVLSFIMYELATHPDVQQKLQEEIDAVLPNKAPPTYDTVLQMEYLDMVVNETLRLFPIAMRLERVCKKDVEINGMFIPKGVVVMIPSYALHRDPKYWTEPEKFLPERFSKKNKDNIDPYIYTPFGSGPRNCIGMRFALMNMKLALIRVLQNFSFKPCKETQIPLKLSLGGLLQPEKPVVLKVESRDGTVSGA
Chain of SUMO-activating enzyme (Q9UBE0 whole entry): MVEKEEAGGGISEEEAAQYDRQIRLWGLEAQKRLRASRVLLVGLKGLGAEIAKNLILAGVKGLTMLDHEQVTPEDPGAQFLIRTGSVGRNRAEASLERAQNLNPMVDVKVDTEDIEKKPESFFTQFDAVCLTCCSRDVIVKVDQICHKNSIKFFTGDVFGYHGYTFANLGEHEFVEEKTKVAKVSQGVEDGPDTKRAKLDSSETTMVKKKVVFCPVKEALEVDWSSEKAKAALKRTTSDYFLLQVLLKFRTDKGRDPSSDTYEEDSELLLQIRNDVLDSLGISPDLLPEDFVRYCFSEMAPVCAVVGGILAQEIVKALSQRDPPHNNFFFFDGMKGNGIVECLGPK
Chain of SUMO-activating enzyme (Q9UBT2 whole entry): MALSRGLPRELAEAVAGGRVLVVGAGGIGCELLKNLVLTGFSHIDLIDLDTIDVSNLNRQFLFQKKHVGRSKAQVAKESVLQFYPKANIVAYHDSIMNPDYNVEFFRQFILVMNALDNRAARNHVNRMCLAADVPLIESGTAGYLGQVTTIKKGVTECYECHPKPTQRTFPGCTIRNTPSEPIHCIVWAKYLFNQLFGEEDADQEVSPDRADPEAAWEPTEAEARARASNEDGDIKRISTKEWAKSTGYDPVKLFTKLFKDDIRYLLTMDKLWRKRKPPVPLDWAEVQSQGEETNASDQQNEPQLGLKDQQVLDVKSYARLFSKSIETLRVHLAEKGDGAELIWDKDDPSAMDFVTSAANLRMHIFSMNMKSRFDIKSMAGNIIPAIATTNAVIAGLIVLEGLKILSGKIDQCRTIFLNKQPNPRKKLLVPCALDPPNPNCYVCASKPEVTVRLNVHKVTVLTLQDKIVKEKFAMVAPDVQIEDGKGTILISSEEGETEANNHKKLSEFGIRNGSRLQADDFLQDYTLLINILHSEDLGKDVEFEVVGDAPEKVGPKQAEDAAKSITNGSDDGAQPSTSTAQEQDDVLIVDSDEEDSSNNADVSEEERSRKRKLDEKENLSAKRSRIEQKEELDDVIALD

Consider `Cn1c(=O)c2nc(CCCCc3nc4ccccc4[nH]3)[nH]c2n(C)c1=O`, for which the AC50 result in data set [1] and in data set [2] was “inconclusive” in each case.

For the compound `Clc1ccc(CNc2nccc(-c3ccc4[nH]ncc4c3)n2)cc1Cl`, in data set [3], the AC50 is 0.00677 µM (active).

In the case of `COc1cccc(NC(=O)c2sc(NC(=O)c3ccncc3)nc2C)c1`, the AC50 in data set [4] is 32.4 µM (active); in data set [3], 22.2 µM (active).

Take `COc1ccc(C(=O)Nn2c(C)nc3ccccc3c2=O)cc1`: the IC50 in data set [5] was 6.37 µM (active); in data set [6], 10.6 µM (active); in data set [7], > 20 µM (inactive).

As for `COc1ccc(N(C(=O)c2snc(C(N)=O)c2N)C(C(=O)NC2CCCC2)c2ccco2)cc1OC` (stereo unspecified), the IC50 in data set [5] was 7.43 µM (active); in [6], 12 µM (active); in data set [7], > 20 µM (inactive).

As to `O=C(N/N=C/c1ccc([N+](=O)[O-])o1)c1cc(-c2ccc(-c3ccccc3)cc2)nc2ccccc12`, the EC50 in data set [8] is 11.2 µM (active); in data set [9], 4.52 µM (inconclusive); in data set [11], 8.03 µM (inconclusive); in [12], 9.46 µM (inconclusive). The IC50 in [10] is 15.4 µM (active).

In the case of `CC(=NNC(S)=Nc1ccccc1Cl)c1ccccn1`, the EC50 in [13] and in data set [14] was > 59.6 µM (inactive) throughout. The AC50 was 0.0577 µM (active) in data set [15] and 3.46 µM (active) in data set [17]. Also, in [16], the 50% inhibitory concentration (IC50) is 21.7 µM (active).

For `CCOc1ncccc1C(=O)OCC(=O)Nc1ccc(C(N)=O)cc1`, the IC50 in data set [18] was > 50 µM (inactive).

In the case of `COc1ccc(CCNC(=O)CCn2c(=O)c3ccccc3n(CC(=O)NCC3CCCO3)c2=O)cc1OC` (stereo unspecified), the IC50 in data set [18] is > 50 µM (inactive).

For the compound `O=C(O)COc1ccc2occ(C(=O)c3ccccc3)c2c1`, in data set [19], the IC50 is 12.3 µM (active). In addition, the AC50 in [4] is 6.49 µM (active).

Take `CCN=C=NCCCN(C)C`: the AC50 in [20] is 5.01 µM (inconclusive); in data set [1], “inconclusive”.

As to `Clc1ccc(CNc2ncncc2-c2ccc3c(c2)OCO3)cc1`, the AC50 in data set [3] was 10 µM (active).

Take `Fc1ccc(NCc2ccccc2F)cc1Cl`: the AC50 in [21] is 31.6 µM (inconclusive); in [23], 20 µM (inconclusive); in data set [25] it was 17.8 µM (inconclusive). Further, the results for the IC50 in data set [22] and in [24] were 13.3 µM (active) and 8.79 µM (active), respectively.

Regarding `N=C1/C(=C/c2ccc(O)cc2)C(=O)N=C2SN=C(SCc3ccccc3)N12`, the IC50 in [22] is 20.4 µM (inactive); in data set [24], 13.3 µM (active).

On to `Cc1cc2c(ccc3nonc32)[nH]1`, for which, in data set [4], the AC50 was 5.79 µM (active).
